Compound | melting point
C=CC(=O)OCCN(C)C | -60 °C
CN(C)CCCOc1nn(Cc2ccccc2)c2ccccc12 | 160 °C
CC(C)CC(C)(C)CC(C)(C)CC(C)(C)C | -98 °C
NC(Cc1cc(F)ccc1F)C(=O)O (racemic) | 252 to 253 °C
C/C(=C(/C#N)c1nc2ccccc2s1)c1cc2ccccc2oc1=O | 155 °C
CC(=O)OCC(COC(C)=O)(COC(C)=O)COC(C)=O | 83.5 °C
C=C1C(=O)C23C4CC5C(C)(C=O)CCCC5(C(=O)O4)C2C(OC(C)=O)CC1C3O (configuration not stated) | 209 °C
NC(=O)C#CC#CC#CCO | 140 °C
Nc1ccc(-c2cnco2)cc1 | 150 to 151 °C
CC(=O)OC1C2COC(O2)C(OC(C)=O)C1OC(C)=O (configuration not stated) | 110 °C
O=C(O)c1cccc(C(=O)O)c1O | 244 °C
CC(C)(C)OC(=O)NCCNc1ccc(C(F)(F)F)cc1N | 129 to 132 °C
C/C(=N\NC(=O)c1ccccn1)c1c(O)c2ccccc2n(-c2ccccc2)c1=O | 288 to 290 °C
Fc1ccc(CN2CCNCC2)cc1 | 64 to 65 °C
Cc1ccncc1C=NO | 180 °C
C=CCC1(CC=C)C(=O)NC(=O)NC1=O | 172 to 173 °C
N#CCc1nn(-c2ccccc2)c(N)c1C#N | 164 °C
C1CN2CCN3CCN4CCN1C2C43 (configuration not stated) | 30 °C
c1ccc(-c2ccncc2)cc1 | 77.5 °C
O=Cc1ccccc1N1CCN(Cc2ccccc2)CC1 | 58 to 60 °C
NC(=S)c1ccc(F)cc1 | 150 °C
C=C1CC2C(CCC3(C)C(=O)CCC23)C2(C)C=CC(=O)C=C12 (configuration not stated) | 190 °C

Compound | melting point
CCN(CCO)CCn1c(Cc2ccccc2)nc2c1c(=O)n(C)c(=O)n2C | 80 °C
O=C(c1ccc[nH]1)C(Cl)(Cl)Cl | 72 to 74 °C
COC(=O)c1c(OC)ccc(OC)c1C(=O)OC | 101 °C
c1ccc2c(c1)ccc1nc3ccc4ccccc4c3cc12 | 216 °C
C=CCN1C(=O)C(CC(C)C)NC1=S (configuration not stated) | 210 °C
COc1cc(OC)cc(C(C)=O)c1 | 40 °C
COc1ccc(C(Cl)=C(c2ccc(OC)cc2)c2ccc(OC)cc2)cc1 | 115 °C
COc1ccnc(-c2cc(OC)ccn2)c1 | 169 to 174 °C
CNCc1ccccc1Cn1cncn1 | 57 to 59 °C
O=c1[nH]nc(-c2ccccc2)c(=S)n1-c1ccc(F)c(Cl)c1 | 138 °C
NC(=S)COc1cccc(Cl)c1 | 122 to 124 °C
NCCCCCCCCCCN | 62.5 °C
Nc1ccc(CC(=O)O)cc1 | 200 °C
CCCCCCc1ccc(C#Cc2ccc(CC)cc2)cc1 | 10 °C
ClCc1cc2c(cc1Cl)OCO2 | 64 °C
Cc1nn(C)c(C)c1N=C=O | 36 to 40 °C
OC1C(Cl)(Cl)CCCC1(Cl)Cl | 55 °C
CC1(C)SC2C(NC(=O)C3(N)CCCCC3)C(=O)N2C1C(=O)O (configuration not stated) | 182 °C
BrCc1cccc2nsnc12 | 89 to 92 °C
Cc1ccc(C(C)C)c(C)c1 | -82 °C
CC(C)(C)c1cc(C(C)(C)C)c(O)c(C(C)(C)C)c1 | 131 °C
OC1(c2ccccc2)c2ccccc2-c2ccccc21 | 107 to 110 °C

Compound | melting point
O=S(=O)(CCSCCO)c1ccc(Cl)cc1 | 59 to 62 °C
Cc1cc(C(=O)O)c(C)n1Cc1cccs1 | 184 to 187 °C
Cc1ccc2nc(-c3ccc(N)cc3)sc2c1 | 195 °C
NC(=O)c1cc(Cl)cc(Cl)c1N | 162 °C
Cc1cc(Br)ncc1I | 51 °C
c1cnc2ccc3ncccc3c2c1 | 177 °C
O=C1CN(C(=O)OCc2ccccc2)CCN1 | 120 °C
Cc1cc[nH]c(=O)c1 | 130 °C
O=C(O)c1ccccc1C1c2ccc(O)cc2Oc2cc(O)ccc21 | 126 °C
CN(C)CCc1c[nH]c2ccccc12 | 46 °C
CCCCCCCCCCCCOc1ccc(C=O)cc1OCCCCCCCCCCCC | 70 to 73 °C
Cn1c(CO)cnc1S | 220 to 222 °C
CCCCCCCCCCCCCCCC(=O)OC1CCC2(C)C(=CCC3C2CCC2(C)C(C(C)CCCC(C)C)CCC32)C1 (configuration not stated) | 75 to 77 °C
Clc1cc(Cl)c(OCC#CI)cc1Cl | 114 °C
c1ccc(C2(c3ccccc3)CC2C2=NCCN2)cc1 (configuration not stated) | 104 °C
O=C(CC(=O)C(F)(F)F)c1ccco1 | 20.5 °C
CCC(C)C(NC(=O)OCC1c2ccccc2-c2ccccc21)C(=O)O (configuration not stated) | 146 to 149 °C
CCCCCCCCCCF | -35 °C
Cc1ccc([Si](C)(Cl)Cl)cc1 | 57 °C
O=C(Nc1nccs1)C(F)(F)C(F)(F)C(F)(F)C(F)(F)C(F)(F)C(F)(F)C(F)(F)C(F)(F)F | 146 °C

Other lines, results leading:

melting point | Compound
40 to 41 °C | COC(=O)c1cc(C)c(S(=O)(=O)Cl)s1
-20.5 °C | CC1(C)CCCCC1=O
270 to 272 °C | O=C(O)c1ccc(C(=O)O)c([N+](=O)[O-])c1
92 °C | O=S(=O)(Cl)Cc1ccccc1
140 °C | COc1cc([N+](=O)[O-])cc(C=O)c1O
195 °C | COc1cc(C=C2SC(=S)N(CNc3ccc([N+](=O)[O-])cc3)C2=O)ccc1O
268 to 272 °C | CCC(C)(N)P(=O)(O)O (configuration not stated)
133 °C | Cc1ccc(C)c2c(=O)c(=O)c12
57 °C | Cc1ccc(CCCC(=O)O)cc1
219 °C | COC1=CC(=O)CC(C)C12Oc1c(Cl)c(OC)cc(OC)c1C2=O (configuration not stated)
186 °C | Cc1ccc(C(=O)O)c([N+](=O)[O-])c1O
111 to 112 °C | COc1cc(CC(=O)O)c([N+](=O)[O-])cc1OC
231 to 234 °C | O=Cc1ccc(-c2cncc(C(=O)O)c2)cc1
131 to 134 °C | NC(=NO)c1ccc(Cl)cc1
93 °C | Cc1nc(-c2cccc(C(=O)Cl)c2)no1
33 to 35 °C | FC(F)(F)c1cccc(Cl)n1
178 °C | COc1cc(C(=O)O)cc(OCc2ccccc2)c1OC
123 to 125 °C | Oc1nsc(SCc2ccccc2)n1
174 to 176 °C | CC(=O)OC(=CC=C(OC(C)=O)c1ccccc1)c1ccccc1
3 °C | CCCCCCCCCCCCCC(=O)OC(C)C
216 °C | CN(C)c1ccc2nc3ccc(=O)cc-3sc2c1

melting point | Compound
285 °C | N=C(N)NCCCC(NC(=O)c1ccccc1)C(=O)O (configuration not stated)
78 °C | CC1(C)OC2(C)CCC1C(=O)OC2(C)C (configuration not stated)
52 to 54 °C | Cc1ccc(I)c([N+](=O)[O-])c1
75 to 76 °C | CNC(=O)c1ccccc1N
124 to 126 °C | COc1cc(C=O)ccc1OCc1c(F)cccc1Cl
122 to 124 °C | CCNC=C(C(=O)OCC)C(=O)c1cnc(Cl)c(F)c1
123 °C | CC1=CC(=O)NS(=O)(=O)O1
164 °C | c1ccc(CC(=NNc2cccc(NN=C(Cc3ccccc3)c3ccccc3)c2)c2ccccc2)cc1
82 to 83 °C | Cc1ccc(C(c2ccc(C)cc2)(C(F)(F)F)C(F)(F)F)cc1
118 to 120 °C | N#CCCn1c(=O)oc2ccccc21
123 to 125 °C | Cc1nn(-c2ccccc2)nc1C(=O)NN
238 °C | O=C(O)c1ccccc1C(c1ccc(O)cc1)c1ccc(O)cc1
74 to 78 °C | Nc1cccc(-c2cccnc2)c1
118 to 120 °C | COc1cc(OC(C)=O)c2c(=O)c(O[C@@H]3O[C@H](COC(C)=O)[C@H](OC(C)=O)[C@H](OC(C)=O)[C@@H]3O[C@@H]3O[C@H](C)[C@H](OC(C)=O)[C@H](OC(C)=O)[C@@H]3OC(C)=O)c(-c3ccc(OC(C)=O)cc3)oc2c1
58 to 60 °C | OCC#Cc1cc(C(F)(F)F)cc(C(F)(F)F)c1
97.3 °C | COC(=O)[C@H]1OC(c2ccc(OC)c(OC)c2)([C@@H](C)Br)O[C@@H]1C(=O)OC
83 to 85 °C | CC(=O)/C(=N\Nc1cc(Cl)ccc1Cl)C(=O)C(F)(F)F
113 °C | CC1CC(OC(=O)C(O)c2ccccc2)CC(C)(C)N1C (configuration not stated)
210 °C | FC(F)(F)c1nc2ccccc2[nH]1
32 °C | Cc1cc(C(C)(C)C)cc(C(C)(C)C)c1
172 °C | Ic1cc(I)c(I)c(I)c1I

melting point | Compound
70 °C | Cc1ccc(Br)c(C)c1[N+](=O)[O-]
152 °C | CCC(C)C(=O)OC1CCC=C2C=CC(C)C(CCC3CC(O)CC(=O)O3)C21 (configuration not stated)
52 to 54 °C | CC(C)Cc1ccc(C(=O)C(C)Cl)cc1 (configuration not stated)
58 °C | CC1CCCC(=O)C1=O (configuration not stated)
-26.3 °C | N#CCCOCCC#N
42 °C | CC(C)Oc1cc(N)c(Cl)cc1Cl
194 to 195 °C | Cc1nc(I)c(I)[nH]1
58 °C | O=C(O)C1CC1(F)F (configuration not stated)
248 to 255 °C | CC(C)C(C)(N)P(=O)(O)O (configuration not stated)
-107 °C | C=C1CCCCC1
47 °C | CCCCCCCCCCCC(=O)c1ccccc1
209 °C | COc1ccccc1C1(C)CCc2oc3ccc(Br)cc3c2-c2oc(C)cc21 (configuration not stated)
210 °C | Nc1cc2c3ccccc3ccc2c2ccccc12
260 °C | NC(C(=O)O)C1=CCC=CC1 (configuration not stated)
22 to 23 °C | COc1ccc(SC)cc1
89 °C | O=C(O)Cc1cccc(Oc2ccccc2)c1
134 to 136 °C | Oc1c(CN2CCCCC2)ccc2ccccc12
119 °C | Cc1ccc2oc3c(c2c1)-c1oc(C)cc1C(C)(c1ccccc1)CC3 (configuration not stated)
100 °C | CC1=CCC2C(C)(C)CCCC2(C)C12CCC(C)(CC(=O)O)O2 (configuration not stated)
66 to 68 °C | O=S(=O)(Cl)c1ccc2c(c1)OCCO2
154 °C | O=C(NC(Cc1ccccn1)C(=O)O)OCC1c2ccccc2-c2ccccc21 (configuration not stated)

— a melting point compilation (Tetko et al.)
